US20250331542A1, “SWEETENER COMPOSITIONS” (Firmenich SA, priority 2022, published 2025)

Experiments:
Assay type in all cases: in vivo, human
[1] = test system: sweet taste of a water solution containing 4% sucrose; assay: Sensory panel, sweet taste in sucrose solution; conditions: for Intensity (sweet): Sucrose solution; for sweet enhancing effect for a sucrose solution (in words): summary of Tables 1-12
Source text: (§1) Methodology: A panel consisted of 8 to 25 trained panelists evaluating the samples for taste properties (sweet, and/or sweet off-taste such as lingering) on a scale of −5 to 5 (−5 denoted strong masking effect and 5 denoted strong enhancing effect, 0 being the intensity of a reference water solution containing 4% sucrose or 0.02% SG95 stevia product).

[2] = test system: sweet taste of a water solution containing 0.02% SG95 stevia product; assay: Sensory panel, sweet taste in SG95 stevia product solution; conditions: for Intensity (sweet): scale -5 to 5, 0 = reference 0.02% SG95; for sweet enhancing effect for an SG95 stevia product solution (in words): summary of Tables 5-6
Source text: as §1

[3] = test system: lingering (sweet off-taste) of a water solution containing 0.02% SG95 stevia product; assay: Sensory panel, lingering off-taste in SG95 stevia product solution
Source text: as §1

[4] = dosage 10 ppm, scale -5 (strong masking) to 5 (strong enhancing), 0 = reference 4% sucrose
[5] = dosage 40 ppm, scale -5 to 5, 0 = reference 4% sucrose

| SMILES | Intensity (sweet) [1, 4] | sweet enhancing effect for a sucrose solution (in words) [1] | further results |
| --- | --- | --- | --- |
| O=C1CC(c2ccc(O)cc2)Oc2cc(O)c([C@@H]3O[C@H](CO)[C@@H](O)[C@H](O)[C@H]3O)c(O)c21 (stereo partly drawn) [Compound 1, naringenin 6-C-β-D glucoside] | 0.49 | significant sweet enhancing effect | – |
| O=C1CC(c2ccc(O)c(O)c2)Oc2cc(O)c([C@@H]3O[C@H](CO)[C@@H](O)[C@H](O)[C@H]3O)c(O)c21 (stereo partly drawn) [Compound 4, eriodictyol 6-C-β-D glucoside] | 0.64 | significant sweet enhancing effect | – |
| COc1ccc(C2CC(=O)c3c(cc(O)c([C@@H]4O[C@H](CO)[C@@H](O)[C@H](O)[C@H]4O)c3O)O2)cc1O (stereo partly drawn) [Compound 7, hesperetin 6-C-β-D glucoside] | 0.57 | significant sweet enhancing effect | – |
| COc1ccc(C2CC(=O)c3c(O)c([C@@H]4O[C@H](CO)[C@@H](O)[C@H](O)[C@H]4O)c(O)c([C@@H]4O[C@H](CO)[C@@H](O)[C@H](O)[C@H]4O)c3O2)cc1O (stereo partly drawn) [Compound 9, hesperetin 6,8-di-C-β-D glucoside] | 0.31 | sweet enhancing effect | – |
| O=C(CCc1ccc(O)cc1)c1c(O)cc(O[C@@H]2O[C@H](CO)[C@@H](O)[C@H](O)[C@H]2O)c([C@@H]2O[C@H](CO)[C@@H](O)[C@H](O)[C@H]2O)c1O [Compound 13, trilobatin 3′-C-β-D glucoside] | 0.67 | significant sweet enhancing effect | – |
| C[C@@H]1O[C@@H](c2c(O)cc3c(c2O)C(=O)CC(c2ccc(O)cc2)O3)[C@H](O)[C@H](O)[C@H]1O (stereo partly drawn) [Compound 15, naringenin 6-C-rhamnoside] | – | sweet enhancing effect | – |
| CC1OC(c2c(O)cc3c(c2O)C(=O)CC(c2ccc(O)cc2)O3)C(O)C(O)C1O (stereo not drawn) [Compound 16, naringenin 6-C-rhamnoside] | – | sweet enhancing effect | – |
| O=c1cc(-c2ccc(O)c(O)c2)oc2cc(O)c([C@@H]3O[C@H](CO)[C@@H](O)[C@H](O)[C@H]3O)c(O)c12 [Compound 17, Isoorientin] | – | sweet enhancing effect | Intensity (sweet) [1, 5]: 0.25 |
| O=c1cc(-c2ccc(O)c(O)c2)oc2c([C@@H]3O[C@H](CO)[C@@H](O)[C@H](O)[C@H]3O)c(O)cc(O)c12 [Compound 18, orientin] | – | significant sweet enhancing effect | Intensity (sweet) [1, 5]: 0.50 |
| O=C(CCc1ccc(O)c(O)c1)c1c(O)cc(O)c([C@@H]2O[C@H](CO)[C@@H](O)[C@H](O)[C@H]2O)c1O [Compound 20, aspalathin] | 0.42 | significant sweet enhancing effect | – |
| O=C(CCc1ccc(O)cc1)c1c(O)cc(O)c([C@@H]2O[C@H](CO)[C@@H](O)[C@H](O)[C@H]2O)c1O [Compound 21, nothofagin] | 0.46 | significant sweet enhancing effect | Intensity (sweet) ([2]; dosage 20 ppm): 0.25; sweet enhancing effect for an SG95 stevia product solution (in words) [2]: sweet enhancing effect |
| O=C(CCc1ccc(O)cc1)c1c(O)c([C@@H]2O[C@H](CO)[C@@H](O)[C@H](O)[C@H]2O)c(O)c([C@@H]2O[C@H](CO)[C@@H](O)[C@H](O)[C@H]2O)c1O [Compound 22, Phloretin-3′,5′-di-C-β-D-glucoside] | – | sweet enhancing effect | Intensity (sweet) [1, 5]: 0.23; Intensity (sweet) ([2]; dosage 40 ppm): 0.25; sweet enhancing effect for an SG95 stevia product solution (in words) [2]: sweet enhancing effect; Intensity (lingering) ([3]; dosage 40 ppm, scale -5 (strong masking) to 5, 0 = reference 0.02% SG95): −0.33; off taste masking effect for an SG95 stevia product solution (in words) ([3]; lingering): lingering masking |
| O=c1cc(-c2ccc(O)cc2)oc2c([C@@H]3O[C@H](CO)[C@@H](O)[C@H](O)[C@H]3O)c(O)cc(O)c12 [Compound 23] | 0.50 | significant sweet enhancing effect | – |
